In the supplement of paper PMC10307832:

Legend:
Temozolomide + Foretinib = compound: Cn1nnc2c(C(N)=O)ncn2c1=O [Temozolomide] + COc1cc2c(Oc3ccc(NC(=O)C4(C(=O)Nc5ccc(F)cc5)CC4)cc3F)ccnc2cc1OCCCN1CCOCC1 [Foretinib] (partner 0.25 µM); experiment: relative viability (nuclei count vs DMSO), 5 days (fraction); higher = more cells survive
In short: (§1)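 The day after seeding in 1536-well plates, lung cancer cell lines were treated by pin tool with a single drug, or with a fixed anchor-drug dose together with five library-drug doses (not always all listed) in √10 steps. After 5 days, a combined fix-and-stain solution (final 0.05% Triton X-100, 1% formaldehyde, 1 ug/ml Hoechst) was added. Nuclei counted on 4× images gave relative viability as treated counts over vehicle counts, reported as the median of duplicate plates.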

AZD5582 + Navitoclax = compound: C[C@@H](C(=O)N[C@@H](C1CCCCC1)C(=O)N2CCC[C@H]2C(=O)N[C@@H]3[C@@H](CC4=CC=CC=C34)OCC#CC#CCO[C@@H]5CC6=CC=CC=C6[C@@H]5NC(=O)[C@@H]7CCCN7C(=O)[C@H](C8CCCCC8)NC(=O)[C@H](C)NC)NC [AZD5582] + CC1(C)CCC(c2ccc(Cl)cc2)=C(CN2CCN(c3ccc(C(=O)NS(=O)(=O)c4ccc(N[C@H](CCN5CCOCC5)CSc5ccccc5)c(S(=O)(=O)C(F)(F)F)c4)cc3)CC2)C1 [Navitoclax] (partner 0.5 µM); experiment: as above
In short: as §1

| Cell Line | relative viability (Temozolomide + Foretinib; first compound 0.6325 µM) | relative viability (Temozolomide + Foretinib; first compound 2 µM) | relative viability (Temozolomide + Foretinib; first compound 6.325 µM) | relative viability (Temozolomide + Foretinib; first compound 20 µM) | relative viability (Temozolomide + Foretinib; first compound 0.2 µM) | relative viability (AZD5582 + Navitoclax; first compound 0.001581 µM) | relative viability (AZD5582 + Navitoclax; first compound 0.005 µM) | relative viability (AZD5582 + Navitoclax; first compound 0.01581 µM) | relative viability (AZD5582 + Navitoclax; first compound 0.05 µM) |
| --- | --- | --- | --- | --- | --- | --- | --- | --- | --- |
| NCI-H1623 | 0.854 | 0.827 | 0.822 | 0.519 | – | – | – | – | – |
| HCC-15 | 1.04 | 1.06 | 0.969 | 1.1 | 1.15 | 0.629 | 0.675 | 0.675 | 0.619 |
| NCI-H2405 | 1.07 | 1.09 | 1.01 | 0.994 | 0.992 | 0.875 | 1.21 | – | 0.866 |
| COR-L 105 | 1.29 | 1.18 | 0.51 | 1.11 | 1.17 | 0.8 | 0.657 | 0.746 | 0.813 |
| PC-14 | 0.98 | 1.03 | 1.01 | 0.202 | 1.07 | 1.06 | 0.967 | 0.969 | 1.11 |
| NCI-H1975 | 0.936 | 1.09 | 0.917 | 0.931 | 0.997 | 1.12 | 1.19 | 1.18 | 1.2 |
| LCLC-103H | 0.787 | 0.895 | 0.73 | 0.713 | 0.834 | – | – | – | – |
| NCI-H2228 | 1.05 | 0.854 | 0.691 | 0.961 | 1.05 | 0.904 | 0.851 | 0.837 | 0.555 |
| NCI-H1563 | 0.967 | 0.886 | 0.915 | 0.927 | 0.762 | – | – | – | – |
| NCI-H661 | 1.01 | 1.05 | 0.955 | 0.963 | 0.941 | – | – | – | – |
| NCI-H460 | 0.967 | 1 | 0.96 | 1.11 | 0.988 | 1.08 | 1.03 | 1.06 | 1.03 |
| NCI-H1792 | – | – | – | – | – | 0.608 | 0.632 | 0.578 | 0.836 |
| NCI-H2023 | 0.749 | 0.847 | 0.68 | 0.848 | 0.825 | 0.962 | 0.844 | 1.01 | 0.956 |
| LU99A | 0.851 | 0.832 | 0.784 | 0.73 | 0.874 | 0.882 | 0.998 | 0.805 | 0.976 |
| SW 1573 | 0.915 | 0.79 | 0.725 | 0.938 | 0.861 | 0.848 | 0.926 | 0.82 | 1.32 |
| COR-L23 | 1.06 | 1.01 | 0.961 | 0.911 | 1.12 | 0.963 | 1.07 | 1 | 1.22 |
| NCI-H23 | 0.979 | 0.97 | 0.778 | 1.05 | 1.02 | 0.594 | 0.512 | 0.721 | 0.778 |
| ChaGo-K-1 | 0.886 | 0.992 | 0.98 | 0.975 | 0.993 | 0.977 | 1.18 | 0.797 | 0.994 |
| Calu-6 | 0.843 | 0.941 | 0.811 | 0.904 | 0.886 | 0.718 | 0.635 | 0.871 | 0.467 |
| NCI-H1944 | 0.922 | 0.847 | 0.875 | 0.795 | 0.756 | 0.985 | 1.13 | 1.08 | 1.11 |

| Cell Line | relative viability (Temozolomide + Foretinib; first compound 0.6325 µM) | relative viability (Temozolomide + Foretinib; first compound 2 µM) | relative viability (Temozolomide + Foretinib; first compound 6.325 µM) | relative viability (Temozolomide + Foretinib; first compound 20 µM) | relative viability (Temozolomide + Foretinib; first compound 0.2 µM) | relative viability (AZD5582 + Navitoclax; first compound 0.001581 µM) | relative viability (AZD5582 + Navitoclax; first compound 0.005 µM) | relative viability (AZD5582 + Navitoclax; first compound 0.01581 µM) | relative viability (AZD5582 + Navitoclax; first compound 0.05 µM) |
| --- | --- | --- | --- | --- | --- | --- | --- | --- | --- |
| NCI-H322M | 0.937 | 1.12 | 0.982 | 0.864 | – | 1.15 | 1.32 | 1.14 | 1.4 |
| EMC-BAC-2 | 1.07 | 1.02 | 0.998 | 0.973 | 0.947 | 1.07 | 0.984 | 1.15 | 0.62 |
| NCI-H3122 | 0.924 | 1.07 | 1 | 0.946 | 0.915 | 1.04 | 1.03 | 1.01 | 0.619 |
| NCI-H520 | 0.842 | 0.704 | 0.689 | 0.769 | 0.908 | 1.07 | 1.15 | 1.1 | 1.15 |
| NCI-H2342 | 1 | 1.04 | 1.02 | 0.886 | 0.793 | – | – | – | – |
| HARA | 0.991 | 1.05 | 0.671 | 0.641 | 0.8 | 1.11 | 1.07 | 1.14 | 1.12 |
| NCI-H1650 | 1.07 | 1.02 | 0.872 | 0.766 | 1.14 | 1.07 | 1.04 | 1.23 | 1.17 |
| EBC-1 | 0.1 | 0.0982 | 0.111 | 0.117 | 0.11 | 0.394 | 0.408 | 0.4 | 0.373 |
| NCI-H358 | 0.707 | 0.614 | 0.657 | 0.541 | 0.477 | – | – | – | – |
| NCI-H2347 | 1.03 | 1.42 | 0.773 | 0.982 | 1.11 | 0.747 | 0.941 | 0.791 | 0.748 |
| UMC-11 | 1.06 | 1.16 | 0.872 | 0.57 | 1.11 | 0.333 | 0.299 | 0.335 | 0.321 |
| NCI-H2009 | 1.21 | 1.24 | 1.2 | 1.3 | 1.23 | 1.14 | 1.21 | 1.15 | 1.18 |
| NCI-H1437 | 1.25 | 1.27 | 1.26 | 1.31 | 1.27 | 1.07 | 1.09 | 1.05 | 1.04 |
| NCI-H647 | 1.3 | 1.13 | 0.702 | 0.302 | 1.16 | 1.02 | 1.09 | 0.919 | 1.27 |
| A549 | 0.996 | 0.998 | 1.01 | 0.769 | 1.02 | 1.24 | 1.26 | 1.2 | 1.14 |
| NCI-H1395 | 0.92 | 1.03 | 0.94 | 0.911 | 0.865 | 1.02 | 1.16 | – | 1.49 |
| NCI-H1915 | 1.04 | 1 | 0.733 | 0.429 | 1.11 | 0.777 | 0.757 | 0.793 | 0.746 |
| BEN | 0.651 | 0.803 | 0.517 | 0.428 | 0.734 | 0.0668 | 0.0512 | 0.0565 | 0.0544 |
| SW 900 | 1.2 | 0.955 | 0.732 | 1.25 | 0.924 | – | – | – | – |
